Experimental data taken from patent publication US20260191968A1, “PROTAC DEGRADERS OF MLLT1 AND/OR MLLT3” (DARK BLUE THERAPEUTICS LTD, priority 2024, published 2026).

How the values were obtained:
MLLT1 = target: T1, MLLT1 (Homo sapiens, UniProt Q03111); assay: MLLT1 degradation assay in MV4-11 cells (JESS chemiluminescent detection), three concentrations, 24 h; assay type: cell-based; details: with respect to DMSO control
T1 construct: host or cells: MV4-11
T1 sequence (Q03111 1-559): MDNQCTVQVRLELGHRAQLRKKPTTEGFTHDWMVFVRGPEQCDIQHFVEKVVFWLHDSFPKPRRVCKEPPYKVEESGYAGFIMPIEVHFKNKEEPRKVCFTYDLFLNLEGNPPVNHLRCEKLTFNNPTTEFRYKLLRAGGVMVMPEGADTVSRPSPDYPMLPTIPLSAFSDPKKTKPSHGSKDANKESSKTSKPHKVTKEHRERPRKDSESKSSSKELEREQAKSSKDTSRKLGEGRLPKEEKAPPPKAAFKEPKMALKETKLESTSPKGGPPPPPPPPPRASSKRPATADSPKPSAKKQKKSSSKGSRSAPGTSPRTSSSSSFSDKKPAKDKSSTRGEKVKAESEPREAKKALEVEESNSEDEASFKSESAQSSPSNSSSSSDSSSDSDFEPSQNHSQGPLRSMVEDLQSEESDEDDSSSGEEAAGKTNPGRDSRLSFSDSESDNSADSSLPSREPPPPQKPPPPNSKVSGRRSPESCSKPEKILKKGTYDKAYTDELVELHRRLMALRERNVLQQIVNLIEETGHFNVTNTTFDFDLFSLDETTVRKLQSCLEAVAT
Summary of the method: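 MV4-11 cells treated 24 h at 37° C, 5% CO2 with 1000, 100 and 10 nM compound (0.1% DMSO final). MLLT1 quantified by automated capillary chemiluminescent immunodetection; band peak area expressed as % degradation relative to DMSO control.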

MV4-11 cells = assay: MV4-11 cellular proliferative assay, Assay Format A (CellTiter-Glo, 120 hours); assay type: cell-based; details: Homo sapiens
Description: An MV4-11 proliferation assay was used to test the ability of compounds to reduce cell viability. MV4-11 cells (ATCC #CRL9591) were grown in IMDM medium (11510596, Gibco) supplemented with 10% fetal bovine serum (F7524, Gibco) and 1% Penicillin/Streptomycin (15140-122, Gibco) at 37° C. with 5% CO2. Cells were seeded in 384-well Elplasia plates (4447, Corning) at a density of 50 cells/well and treated with vehicle (DMSO) or compounds (10 serial semi-log dilutions, 30 μM as top concentration).
After 120 hours of treatment, cells were incubated for 10 min at RT with the CellTiter-Glo (CTG) reagent (G7571, Promega). Measurement of the luminescence signal was performed on a microplate reader (Ensight, PerkinElmer). CTG reagent measures the amount of ATP, which is directly proportional to the number of cells, to determine the number of viable cells in culture.
The data were analysed as follows:
where x is the measured raw signal value of a well, (cr) is the median of the measured signal values for the Central Reference (DMSO) wells on a plate, (sr) is the median of the measured signal values for the Scale Reference (reference compound) wells on a plate.
where the experimental set-up assumes the Hill parameters in certain ranges: S0~Central Reference (CR) from normalization (=Bottom), Sinf~Scale Reference (SR) from normalization (=Top), nHill~1, AC50~within the measured concentration range.

Structure (SMILES)	MLLT1% Degradation @ 0.01 μM (MLLT1)	MLLT1% Degradation @ 0.1 μM (MLLT1)	MLLT1% Degradation @ 1 μM (MLLT1)	IC50 (MV4-11 cells)
CN1CCC[C@@H]1c1cc2cnc(NC(=O)c3ccc(CCC4CCN(c5cccc6c5C(=O)N(C5CCC(=O)NC5=O)C6=O)CC4)cc3)cc2[nH]1 (stereo partly drawn) [Example 4, 4-(2-(1-(2-(2,6-dioxopiperidin-3-yl)-1,3-dioxoisoindolin-4-yl)piperidin-4-yl)ethyl)-N-(2-((R)-1-methylpyrrolidin-2-yl)-1H-pyrrolo[3,2-c]pyridin-6-yl)benzamide]	B (Category B: 50% ≤ B < 75% degradation)	A (Category A: A ≥ 75% degradation)	A (Category A: A ≥ 75% degradation)	≤ 100 nM
CN1CCC[C@@H]1c1cc2cnc(NC(=O)c3ccc(OCCC#Cc4cccc5c4CN(C4CCC(=O)NC4=O)C5=O)cc3)cc2[nH]1 (stereo partly drawn) [Example 19, 4-((4-(2-(2,6-dioxopiperidin-3-yl)-1-oxoisoindolin-4-yl)but-3-yn-1-yl)oxy)-N-(2-((R)-1-methylpyrrolidin-2-yl)-1H-pyrrolo[3,2-c]pyridin-6-yl)benzamide]	B (Category B: 50% ≤ B < 75% degradation)	A (Category A: A ≥ 75% degradation)	A (Category A: A ≥ 75% degradation)	≤ 100 nM
CN1CCC[C@@H]1c1cc2cnc(NC(=O)c3ccc(-c4cnn(CCCC#Cc5cccc6c5CN(C5CCC(=O)NC5=O)C6=O)c4)cc3)cc2[nH]1 (stereo partly drawn) [Example 21, 4-(1-(5-(2-(2,6-dioxopiperidin-3-yl)-1-oxoisoindolin-4-yl)pent-4-yn-1-yl)-1H-pyrazol-4-yl)-N-(2-((R)-1-methylpyrrolidin-2-yl)-1H-pyrrolo[3,2-c]pyridin-6-yl)benzamide]	A (Category A: A ≥ 75% degradation)	A (Category A: A ≥ 75% degradation)	B (Category B: 50% ≤ B < 75% degradation)	≤ 100 nM
CN1CCC[C@@H]1c1cc2cnc(NC(=O)c3ccc(-c4cnn(CCCC#Cc5ccc6c(c5)CN(C5CCC(=O)NC5=O)C6=O)c4)cc3)cc2[nH]1 (stereo partly drawn) [Example 22, 4-(1-(5-(2-(2,6-dioxopiperidin-3-yl)-1-oxoisoindolin-5-yl)pent-4-yn-1-yl)-1H-pyrazol-4-yl)-N-(2-((R)-1-methylpyrrolidin-2-yl)-1H-pyrrolo[3,2-c]pyridin-6-yl)benzamide]	A (Category A: A ≥ 75% degradation)	A (Category A: A ≥ 75% degradation)	A (Category A: A ≥ 75% degradation)	≤ 100 nM
C[C@@H](C#Cc1cccc2c1CN(C1CCC(=O)NC1=O)C2=O)Oc1ccc(C(=O)Nc2cc3[nH]c([C@H]4CCCN4C)cc3cn2)cc1 (stereo partly drawn) [Example 24, 4-(((2S)-4-(2-(2,6-dioxopiperidin-3-yl)-1-oxoisoindolin-4-yl)but-3-yn-2-yl)oxy)-N-(2-((R)-1-methylpyrrolidin-2-yl)-1H-pyrrolo[3,2-c]pyridin-6-yl)benzamide]	A (Category A: A ≥ 75% degradation)	A (Category A: A ≥ 75% degradation)	A (Category A: A ≥ 75% degradation)	≤ 100 nM
C[C@H](C#Cc1cccc2c1CN(C1CCC(=O)NC1=O)C2=O)Oc1ccc(C(=O)Nc2cc3[nH]c([C@H]4CCCN4C)cc3cn2)cc1 (stereo partly drawn) [Example 25, 4-(((2R)-4-(2-(2,6-dioxopiperidin-3-yl)-1-oxoisoindolin-4-yl)but-3-yn-2-yl)oxy)-N-(2-((R)-1-methylpyrrolidin-2-yl)-1H-pyrrolo[3,2-c]pyridin-6-yl)benzamide]	A (Category A: A ≥ 75% degradation)	A (Category A: A ≥ 75% degradation)	A (Category A: A ≥ 75% degradation)	≤ 100 nM
